Results from PMC7549094 (Journal of Medicinal Chemistry, 2020).
In brackets after ≈: the same amount, converted by molar mass.

Assays:
[1] = biological target: T1, purified L. donovani proteasome (Leishmania donovani, UniProt A0A3Q8IIY4+A0A3S7XA80); assay: chymotrypsin-like activity of purified L. donovani proteasome; assay type: biochemical; settings: half-maximum inhibition of chymotrypsin-like activity of purified L. donovani proteasome; mean, n = 4 technical replicates
T1 sequence (A0A3Q8IIY4 100-302): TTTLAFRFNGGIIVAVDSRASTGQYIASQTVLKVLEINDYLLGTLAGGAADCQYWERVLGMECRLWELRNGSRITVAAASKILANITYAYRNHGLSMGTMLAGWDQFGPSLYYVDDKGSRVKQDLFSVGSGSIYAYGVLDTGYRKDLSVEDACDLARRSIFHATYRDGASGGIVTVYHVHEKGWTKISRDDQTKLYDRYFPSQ
T1 sequence (A0A3S7XA80 1-206): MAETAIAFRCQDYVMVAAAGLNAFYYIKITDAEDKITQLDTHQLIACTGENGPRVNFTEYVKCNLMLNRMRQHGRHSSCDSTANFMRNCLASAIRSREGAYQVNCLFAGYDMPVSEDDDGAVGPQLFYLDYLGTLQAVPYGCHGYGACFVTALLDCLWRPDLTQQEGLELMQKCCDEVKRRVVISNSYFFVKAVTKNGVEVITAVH

[2] = high-throughput solubility pH 6.8; assay type: physicochemical; settings: high-throughput assay format, read-out: HT sol. pH 6.8
in vitro AMES = assay type: cell-based
hr Ad3 = biological target: T2, hr Ad3 (Homo sapiens, UniProt P0DMS8); assay: receptor profile (Table S4); assay type: binding
T2 sequence (P0DMS8 1-318): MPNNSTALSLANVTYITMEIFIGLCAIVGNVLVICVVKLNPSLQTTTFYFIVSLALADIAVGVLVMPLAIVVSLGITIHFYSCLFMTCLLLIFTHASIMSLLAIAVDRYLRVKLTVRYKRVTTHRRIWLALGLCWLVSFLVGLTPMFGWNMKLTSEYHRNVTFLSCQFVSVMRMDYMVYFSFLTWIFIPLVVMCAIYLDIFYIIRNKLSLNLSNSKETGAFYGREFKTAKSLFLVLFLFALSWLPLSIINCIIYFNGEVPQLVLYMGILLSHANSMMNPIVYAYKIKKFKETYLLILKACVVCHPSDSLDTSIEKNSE

hr D3 = hr D3 (Homo sapiens, UniProt P35462); assay: receptor profile (Table S4); assay type: binding
hr D3, sequence (P35462 whole entry): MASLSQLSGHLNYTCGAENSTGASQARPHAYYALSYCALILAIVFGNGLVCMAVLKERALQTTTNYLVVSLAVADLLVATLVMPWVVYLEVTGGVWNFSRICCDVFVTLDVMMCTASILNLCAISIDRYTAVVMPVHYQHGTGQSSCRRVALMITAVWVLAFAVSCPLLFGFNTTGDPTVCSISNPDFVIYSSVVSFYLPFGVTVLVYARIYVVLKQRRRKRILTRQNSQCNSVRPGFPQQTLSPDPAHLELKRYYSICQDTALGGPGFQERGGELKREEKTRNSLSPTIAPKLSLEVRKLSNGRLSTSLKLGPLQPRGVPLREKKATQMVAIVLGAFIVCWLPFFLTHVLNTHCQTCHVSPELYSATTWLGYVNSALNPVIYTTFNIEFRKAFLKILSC

hr GHS = hr GHS (Homo sapiens, UniProt Q92847); assay: receptor profile (Table S4); assay type: binding
hr GHS, sequence (Q92847 whole entry): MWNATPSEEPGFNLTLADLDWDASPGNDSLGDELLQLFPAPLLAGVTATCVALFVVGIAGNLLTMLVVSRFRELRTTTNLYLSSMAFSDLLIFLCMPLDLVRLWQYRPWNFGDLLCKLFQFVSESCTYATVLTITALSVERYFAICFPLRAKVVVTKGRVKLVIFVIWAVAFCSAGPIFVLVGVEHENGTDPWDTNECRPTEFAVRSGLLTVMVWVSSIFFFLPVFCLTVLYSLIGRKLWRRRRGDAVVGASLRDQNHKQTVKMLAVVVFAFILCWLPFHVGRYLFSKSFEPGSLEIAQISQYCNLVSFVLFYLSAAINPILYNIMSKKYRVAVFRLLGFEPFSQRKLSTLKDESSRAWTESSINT

hr 5-HT2B ag = hr 5-HT2B ag (Homo sapiens, UniProt P41595); assay: receptor profile (Table S4); assay type: biochemical
hr 5-HT2B ag, sequence (P41595 whole entry): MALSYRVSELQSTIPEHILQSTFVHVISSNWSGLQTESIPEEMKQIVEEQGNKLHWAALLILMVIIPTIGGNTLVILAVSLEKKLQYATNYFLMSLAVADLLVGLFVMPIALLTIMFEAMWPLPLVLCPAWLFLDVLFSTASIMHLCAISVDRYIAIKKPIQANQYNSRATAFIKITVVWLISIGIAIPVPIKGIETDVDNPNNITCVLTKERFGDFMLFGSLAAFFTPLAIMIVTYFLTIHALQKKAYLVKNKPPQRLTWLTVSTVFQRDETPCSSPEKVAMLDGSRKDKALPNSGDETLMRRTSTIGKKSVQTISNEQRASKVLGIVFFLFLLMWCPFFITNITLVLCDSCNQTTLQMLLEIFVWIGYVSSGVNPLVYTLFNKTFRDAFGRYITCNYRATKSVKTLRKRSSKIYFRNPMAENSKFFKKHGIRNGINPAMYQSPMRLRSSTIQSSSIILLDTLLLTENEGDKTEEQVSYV

hr 5-HT2C = biological target: T3, hr 5-HT2C (Homo sapiens, UniProt P28335); assay: receptor profile (Table S4); assay type: binding
T3 sequence (P28335 33-458): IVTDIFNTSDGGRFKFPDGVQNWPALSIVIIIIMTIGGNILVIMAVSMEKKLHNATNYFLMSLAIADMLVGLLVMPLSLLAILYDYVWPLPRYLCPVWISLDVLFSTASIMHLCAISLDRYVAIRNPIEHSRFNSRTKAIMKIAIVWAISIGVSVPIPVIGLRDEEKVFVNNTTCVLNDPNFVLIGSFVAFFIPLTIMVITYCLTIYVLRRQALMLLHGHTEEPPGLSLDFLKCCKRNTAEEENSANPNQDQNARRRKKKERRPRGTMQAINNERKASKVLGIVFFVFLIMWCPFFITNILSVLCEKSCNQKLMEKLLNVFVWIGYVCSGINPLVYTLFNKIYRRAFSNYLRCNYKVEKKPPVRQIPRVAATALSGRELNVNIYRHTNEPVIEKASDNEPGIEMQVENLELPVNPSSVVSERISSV

hr OpM = hr OpM (Homo sapiens, UniProt P35372); assay: receptor profile (Table S4); assay type: binding
hr OpM, sequence (P35372 whole entry): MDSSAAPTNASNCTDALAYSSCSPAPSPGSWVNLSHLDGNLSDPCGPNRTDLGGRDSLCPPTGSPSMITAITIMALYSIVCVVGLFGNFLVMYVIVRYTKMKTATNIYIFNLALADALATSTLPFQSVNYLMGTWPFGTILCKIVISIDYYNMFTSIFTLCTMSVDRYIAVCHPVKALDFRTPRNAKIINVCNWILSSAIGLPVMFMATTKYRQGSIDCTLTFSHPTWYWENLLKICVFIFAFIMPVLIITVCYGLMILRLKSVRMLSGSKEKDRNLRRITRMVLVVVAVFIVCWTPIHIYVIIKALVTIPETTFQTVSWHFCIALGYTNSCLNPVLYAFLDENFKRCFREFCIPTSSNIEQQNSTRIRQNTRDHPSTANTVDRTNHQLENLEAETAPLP

hr TP ag = biological target: T4, hr TP ag (Homo sapiens, UniProt P21731); assay: receptor profile (Table S4); assay type: biochemical
T4 sequence (P21731 1-343): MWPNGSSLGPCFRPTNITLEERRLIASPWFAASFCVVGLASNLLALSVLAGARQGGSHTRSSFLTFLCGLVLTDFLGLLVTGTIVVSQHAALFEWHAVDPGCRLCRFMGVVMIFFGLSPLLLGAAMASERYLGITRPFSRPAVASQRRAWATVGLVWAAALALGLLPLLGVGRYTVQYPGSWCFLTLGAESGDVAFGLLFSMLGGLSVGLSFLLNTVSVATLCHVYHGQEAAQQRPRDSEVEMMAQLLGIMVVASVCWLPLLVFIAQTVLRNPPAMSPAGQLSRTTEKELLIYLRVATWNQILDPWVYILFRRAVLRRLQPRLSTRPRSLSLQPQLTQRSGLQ

ov COX-1 = biological target: T5, ov COX-1 (Ovis aries, UniProt P05979); assay: receptor profile (Table S4); assay type: biochemical, ovine
T5 sequence (P05979 25-600): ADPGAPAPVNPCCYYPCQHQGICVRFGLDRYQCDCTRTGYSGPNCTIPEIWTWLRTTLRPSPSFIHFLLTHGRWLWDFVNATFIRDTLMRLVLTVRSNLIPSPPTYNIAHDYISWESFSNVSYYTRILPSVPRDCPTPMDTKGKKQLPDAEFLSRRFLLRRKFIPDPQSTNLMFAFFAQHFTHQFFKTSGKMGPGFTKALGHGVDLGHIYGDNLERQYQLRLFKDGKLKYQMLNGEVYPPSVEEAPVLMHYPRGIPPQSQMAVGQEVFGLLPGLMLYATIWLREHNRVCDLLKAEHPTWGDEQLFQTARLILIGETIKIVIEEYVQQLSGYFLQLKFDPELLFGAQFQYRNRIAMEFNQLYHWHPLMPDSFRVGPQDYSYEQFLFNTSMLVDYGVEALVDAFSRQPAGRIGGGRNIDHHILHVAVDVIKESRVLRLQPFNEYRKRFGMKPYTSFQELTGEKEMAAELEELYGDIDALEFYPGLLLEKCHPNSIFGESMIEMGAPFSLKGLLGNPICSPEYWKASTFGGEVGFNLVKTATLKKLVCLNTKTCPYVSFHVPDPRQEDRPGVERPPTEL

[3] = microsomal extraction ratio, 1 h incubation in microsomes

Q: For Cc1nc(C)c(C(=O)Nc2ccc(F)c(-c3nc4ncc(-c5ncccc5C)cn4n3)c2)o1 [compound 1, N-(4-Fluoro-3-(6-(3-methylpyridin-2-yl)-[1,2,4]triazolo[1,5-a]pyrimidin-2-yl)phenyl)-2,4-dimethyloxazole-5-carboxamide], which IC50 [1] is on record?
A: 0.04 µM

Q: And the solubility kinetic [2]?
A: 17 µM (≈ 7.54 µg/mL)

Q: What about the “AMES, risk of mutagenicity” value (in vitro AMES) of the same molecule?
A: did not indicate a risk

Q: What about the EC50/IC50 (hr Ad3; hr Ad3) of the same molecule?
A: > 30 µM

Q: And the inhibition at 10 µM (hr Ad3; read-out: % inh/act @ 10 µM)?
A: 8%

Q: And the inhibition at 30 µM (hr Ad3; read-out: % inh/act @ 30 µM)?
A: 37%

Q: And the EC50/IC50 (hr D3; hr D3)?
A: > 30 µM

Q: And the inhibition at 10 µM (hr D3; read-out: % inh/act @ 10 µM)?
A: 9%

Q: And the inhibition at 30 µM (hr D3; read-out: % inh/act @ 30 µM)?
A: 7%

Q: And the EC50/IC50 (hr GHS; hr GHS)?
A: > 30 µM

Q: And the inhibition at 10 µM (hr GHS; read-out: % inh/act @ 10 µM)?
A: 12%

Q: And the inhibition at 30 µM (hr GHS; read-out: % inh/act @ 30 µM)?
A: 12%

Q: And the EC50/IC50 (hr 5-HT2B ag; hr 5-HT2B ag)?
A: > 30 µM

Q: What about the inhibition at 10 µM (hr 5-HT2B ag; read-out: % inh/act @ 10 µM) of the same molecule?
A: -6%

Q: And the inhibition at 30 µM (hr 5-HT2B ag; read-out: % inh/act @ 30 µM)?
A: -3%

Q: What about the EC50/IC50 (hr 5-HT2C; hr 5-HT2C) of the same molecule?
A: > 30 µM

Q: What about the inhibition at 10 µM (hr 5-HT2C; read-out: % inh/act @ 10 µM) of the same molecule?
A: 9%

Q: And the inhibition at 30 µM (hr 5-HT2C; read-out: % inh/act @ 30 µM)?
A: 8%

Q: And the EC50/IC50 (hr OpM; hr OpM)?
A: > 30 µM

Q: What about the inhibition at 10 µM (hr OpM; read-out: % inh/act @ 10 µM) of the same molecule?
A: 18%

Q: And the inhibition at 30 µM (hr OpM; read-out: % inh/act @ 30 µM)?
A: 19%

Q: And the EC50/IC50 (hr TP ag; hr TP ag)?
A: > 30 µM

Q: What about the inhibition at 10 µM (hr TP ag; read-out: % inh/act @ 10 µM) of the same molecule?
A: -5%

Q: And the inhibition at 30 µM (hr TP ag; read-out: % inh/act @ 30 µM)?
A: -2%

Q: And the EC50/IC50 (ov COX-1; ov COX-1)?
A: > 30 µM

Q: What about the inhibition at 10 µM (ov COX-1; read-out: % inh/act @ 10 µM) of the same molecule?
A: 16%

Q: What about the inhibition at 30 µM (ov COX-1; read-out: % inh/act @ 30 µM) of the same molecule?
A: 14%

Q: And the ER dog [3]?
A: < 0.24
